Results published in publication PMC10811918, “Mechanisms of Bushen Tiaoxue Granules against controlled ovarian hyperstimulation-induced abnormal morphology of endometrium based on network pharmacology” (Journal of Ovarian Research, 2024).
Where two headings read alike, the source gives them in different places.

Columns and labels:
[1] = tested on: Human endometrial stromal cells (hESC); experiment: Cytotoxicity on hESC (CCK8 cell viability); assay type: cell-based; details: for IC50: read-out: IC50 (inhibition of hESC proliferation)
Experimental: Human endometrial stromal cells (hESC) were obtained from the Meisen Chinese Tissue Culture Collections (Zhejiang, China). The basal culture medium for hESC comprised DMEM/F12 supplemented with 10% fetal bovine serum (FBS) and 1% penicillin–streptomycin. The culture environment was maintained at 5% CO2 and 37 °C. […] Six gradients of concentrations were established to determine the IC50 of these compounds.
(§1) D-Galactose (D-Gal) was procured from Solabio Company (Beijing, China) and prepared in DMEM/F12 at a concentration of 200 mM as the modeling drug. hESC were uniformly seeded at 4 × 10^3 cells/well in a 96-well plate with 6 replicates per group, while wells treated only with basal culture medium served as the control group. Following cell adhesion, a 24-h intervention with 200 mM D-Gal was administered, followed by a 24-h culture with the appropriate concentration of natural product selected from the screening. CCK8 solution (Solabio, Beijing, China) was added to the wells and incubated in the culture chamber for 2 h, and absorbance was recorded at 450 nm using a microplate reader (Bio-Rad, USA).
All data in this study were analyzed by SPSS 22.0 software, and the results were presented as mean ± SEM. The one-way ANOVA, followed with Turkey’s test was performed for multiple comparison. p value < 0.05 was considered statistically significant. GraphPad Prism is utilized for calculating IC50 values and organizing graphs.
Previous studies have identified an increased senescent phenotype in endometrial stromal cells post COH, which is unfavorable for decidualization during embryo implantation. D-Gal is a widely recognized mimetic agent causing oxidative stress damage and promoting aging.

[2] = tested on: mouse embryos; design: method as in PMID 25896022; details: cited from earlier work
[3] = tested on: hESC with D-Gal-induced damage; experiment: Protection against D-Gal-induced damage in hESC (CCK-8); assay type: cell-based, Human; details: 200 mM D-Gal 24 h, then compound 24 h at two concentrations: quercetin 50/25 μM, taxifolin 260/130 μM, kaempferol 400/200 μM, eriodictyol 230/115 μM, isorhamnetin 500/250 μM
Experimental: as §1
Cell viability was assessed using CCK-8 assay (Fig. 10A).

[4] = cited from earlier work
[5] = Blood drug concentration of kaempferol following BTG administration; assay type: in vivo, rat; details: rats, BTG 3.27 g/kg oral gavage for 3 days, sampling 10 min to 12 h
From the text: Supplementary file 13048_2023_1339_MOESM1_ESM.pdf: Additional file 1: Table S1. Composition of the BTG. Table S2. Identification of chemical components in BTG. Table S3. Affinity of ingredients with potential targets. Figure S1. […] Upon usage, it was sequentially diluted to obtain concentration gradient solutions. Utilizing the same 50 female SD rats as employed in the in vivo experiment, two rats constituted the blank control group, while the remaining 48 rats were divided into treatment groups, each consisting of 6 rats. […] The blood samples were centrifuged at 4°C, 3500 rpm for 10 min, and the supernatant was analyzed. Following the UPLC-MS analysis method described earlier, the peak areas of the analyte and internal standard were recorded to calculate the blood drug concentrations at each time point. […] The serum levels of (A) ALT, (B) AST, (C) CREA, (D) UA, and (E) UREA in each group of rats were measured using microplate assays. […]
stock solution of 200 μg/mL for the mixed control solution. […] The blood samples were centrifuged at 4°C, 3500 rpm for 10 min, and the supernatant was analyzed. Following the UPLC-MS analysis method described earlier, the peak areas of the analyte and internal standard were recorded to calculate the blood drug concentrations at each time point. […]

[6] = tested on: mice; details: dose higher than 800 μg; cited from earlier work
[7] = hESC, six concentration gradients

SMILES	IC50 [1, 7]	improvement of cellular viability damage caused by D-Gal [3]	also measured
O=C[C@H](O)[C@@H](O)[C@@H](O)[C@H](O)CO [D-Gal, D-Galactose, reference compound]	–	–	inhibition at 200000 µM ([1]; hESCs, 200 mM, read-out: inhibition of cell proliferation): ~50%
O=C(O)[C@H]1O[C@@H](Oc2cc3oc(-c4ccccc4)cc(=O)c3c(O)c2O)[C@H](O)[C@@H](O)[C@@H]1O [baicalin]	–	–	adhesion rate and implantation rate of mouse embryos [2]: increase
O=C1C[C@@H](c2ccc(O)c(O)c2)Oc2cc(O)cc(O)c21 [eriodictyol]	233 µM	effective improvement	–
COc1cc(-c2oc3cc(O)cc(O)c3c(=O)c2O)ccc1O [isorhamnetin]	> 500 µM	failed to effectively ameliorate	–
O=c1c(O)c(-c2ccc(O)cc2)oc2cc(O)cc(O)c12 [kaempferol]	–	effective improvement	IC50 [1]: 399 µM; oral bioavailability [4]: 41.88%; kaempferol concentration in the blood following BTG administration [5]: sustained detectable concentrations even at 8 h
CS(=O)(=O)Nc1ccc([N+](=O)[O-])cc1Oc1ccccc1 [nimesulide]	–	–	implantation sites [6]: reduced
O=c1c(O)c(-c2ccc(O)c(O)c2)oc2cc(O)cc(O)c12 [quercetin]	–	failed to effectively ameliorate	IC50 [1]: 45.4 µM; oral bioavailability [4]: 46.43%
O=C1c2c(O)cc(O)cc2OC(c2ccc(O)c(O)c2)C1O (stereo not shown) [taxifolin]	263 µM	effective improvement	–
